Results: PMC8667930, “Novel sulphonamide-bearing methoxyquinazolinone derivatives as anticancer and apoptosis inducers: synthesis, biological evaluation and in silico studies” (Journal of Enzyme Inhibition and Medicinal Chemistry, 2021)

Key:
[1] = system: A549 cells (non-small cell lung carcinoma); assay: MTT cytotoxicity assay, A549; assay type: cell-based; details: mean ± SD (n = 3), NA = no activity; for IC50: Homo sapiens, A549, 48 h treatment; for IC50, A549: 48 h treatment
Protocol: (§1) The MTT assay was performed to test the antiproliferative activity of the synthesised compounds, as per the methodology described by Alqahtani and co-workers[35]. Briefly, A549, HepG2, LoVo, MCF-7 and HUVEC cell lines were seeded in 96-cell culture plates (5 × 10^4 per well) and allowed 24 h for adherence. The cells were then treated with different concentrations of each compound, and 5-fluorouracil was used as a positive control. Following the treatment period (48 h), 10 µL of MTT solution (5 mg/mL) was added to each well and the plates were incubated at 37 °C for 2–4 h. Isopropanol (100 µL) acidified with 0.1 N HCl was added to solubilise the formazan products and the plate was kept on a shaker for 10 min. The optical density of each mixture was measured at 570 nm using an enzyme-linked immunosorbent assay plate reader (ELISA plate reader, Bio-Tek, USA). The concentrations of tested compounds required to inhibit cell growth by 50% (IC50) were calculated using a dose-response curve. Cell survival was calculated using the following equation: Cell survival (%)=(OD of treated sample)/(OD of untreated sample)×100

[2] = system: HepG2 cells (liver cancer); assay: MTT cytotoxicity assay, HepG2; assay type: cell-based; details: mean ± SD (n = 3), NA = no activity; for IC50: Homo sapiens, HepG2, 48 h treatment; for IC50, HepG2: 48 h treatment
Protocol: as §1

[3] = system: LoVo cells (colon cancer); assay: MTT cytotoxicity assay, LoVo; assay type: cell-based; details: 48 h treatment, mean ± SD (n = 3), NA = no activity; for IC50: Homo sapiens, LoVo
Protocol: as §1

[4] = system: MCF-7 cells (human breast cancer cell line); assay: MTT cytotoxicity assay, MCF-7; assay type: cell-based; details: mean ± SD (n = 3), NA = no activity; for IC50: Homo sapiens, MCF7, 48 h treatment; for IC50, MCF-7: 48 h treatment
Protocol: as §1

[5] = system: HUVEC (normal human umbilical vein endothelial cells); assay: MTT cytotoxicity assay, HUVEC; assay type: cell-based; details: 48 h treatment, mean ± SD (n = 3), NA = no activity; for IC50: Homo sapiens, HUVEC
Protocol: as §1

SMILES	IC50 [1] [µM]	IC50 [2] [µM]	IC50 [3] [µM]	IC50 [4] [µM]	IC50 [5] [µM]	IC50, A549 [1]	IC50, HepG2 [2]	IC50, LoVo [3]	IC50, MCF-7 [4]	IC50, HUVEC [5]	melting point [°C]
O=c1[nH]cc(F)c(=O)[nH]1 [5-Flurouracil, 5-Fluorouracil, reference compound]	98.86 ± 0.01	132.4 ± 0.6	90.71 ± 0.5	95.63 ± 0.3	167 ± 0.2						
COc1cccc2c(=O)n(-c3ccc(S(N)(=O)=O)cc3)c(SCC(=O)Nc3ccccc3)nc12 [Compound 5, 2-((8-Methoxy-4-oxo-3–(4-sulphamoylphenyl)-3,4-dihydroquinazolin-2-yl)thio)-N-phenyl-acetamide]						no activity	no activity	no activity	no activity	no activity	> 350
COc1cccc2c(=O)n(-c3ccc(S(N)(=O)=O)cc3)c(SCC(=O)Nc3cccc(C)c3)nc12 [Compound 7, 2-((8-Methoxy-4-oxo-3-(4-sulphamoylphenyl)-3,4-dihydroquinazolin-2-yl)thio)-N-(m-tolyl) acetamide]	58.6 ± 1.52	39.7 ± 2.27	30.1 ± 1.3	27.7 ± 1.85	83.2 ± 0.9						> 350
COc1cccc2c(=O)n(-c3ccc(S(N)(=O)=O)cc3)c(SCC(=O)Nc3ccc(C)cc3)nc12 [Compound 8, 2-((8-Methoxy-4-oxo-3-(4-sulphamoylphenyl)-3,4-dihydroquinazolin-2-yl)thio)-N-(p-tolyl) acetamide]						no activity	no activity	no activity	no activity	no activity	> 350
CCc1ccccc1NC(=O)CSc1nc2c(OC)cccc2c(=O)n1-c1ccc(S(N)(=O)=O)cc1 [Compound 9, N-(2-Ethylphenyl)-2-((8-methoxy-4-oxo-3-(4-sulphamoylphenyl)-3,4-dihydroquinazolin-2-yl)thio) acetamide]						no activity	no activity	no activity	no activity	no activity	288 to 290
CCc1ccc(NC(=O)CSc2nc3c(OC)cccc3c(=O)n2-c2ccc(S(N)(=O)=O)cc2)cc1 [Compound 11, N-(4-Ethylphenyl)-2-((8-methoxy-4-oxo-3-(4-sulphamoylphenyl)-3,4-dihydroquinazolin-2-yl)thio) acetamide]	50.5 ± 1.73	42.7 ± 0.84		29.4 ± 0.33	32.9 ± 1.4						280 to 282
COc1ccc(NC(=O)CSc2nc3c(OC)cccc3c(=O)n2-c2ccc(S(N)(=O)=O)cc2)cc1 [Compound 12, 2-((8-Methoxy-4-oxo-3-(4-sulphamoylphenyl)-3,4-dihydroquinazolin-2-yl)thio)-N-(p-methoxyphenyl) acetamide]						no activity	no activity	no activity	no activity	no activity	296 to 298
CCOc1ccc(NC(=O)CSc2nc3c(OC)cccc3c(=O)n2-c2ccc(S(N)(=O)=O)cc2)cc1 [Compound 13, N-(p-Ethoxyphenyl)-2-((8-methoxy-4-oxo-3-(4-sulphamoylphenyl)-3,4-dihydroquin-azolin-2-yl)thio) acetamide]	61.9 ± 1.35	38 ± 0.47	54.4 ± 2.07	46.7 ± 1.23	39 ± 1.4						300 to 302
COc1cc(NC(=O)CSc2nc3c(OC)cccc3c(=O)n2-c2ccc(S(N)(=O)=O)cc2)cc(OC)c1 [Compound 14, N-(3,5-Dimethoxyphenyl)-2-((8-methoxy-4-oxo-3-(4-sulphamoylphenyl)-3,4-dihydroq-uinazolin-2-yl)thio) acetamide]	68.34 ± 0.42	72.5 ± 1.06	38.3 ± 0.65	34.6 ± 1.15	62.6 ± 2.34						240 to 242
COc1cc(NC(=O)CSc2nc3c(OC)cccc3c(=O)n2-c2ccc(S(N)(=O)=O)cc2)cc(OC)c1OC [Compound 15, 2-((8-Methoxy-4-oxo-3-(4-sulphamoylphenyl)-3,4-dihydroquinazolin-2-yl)thio)-N-(3,4,5-trimethoxyphenyl) acetamide]	75 ± 1.74	75.2 ± 0.96	47.5 ± 4.08	74 ± 2.16	79 ± 1.09						290 to 292
COc1cccc2c(=O)n(-c3ccc(S(N)(=O)=O)cc3)c(SCC(=O)Nc3ccc([N+](=O)[O-])cc3C)nc12 [Compound 16, 2-((8-Methoxy-4-oxo-3-(4-sulphamoylphenyl)-3,4-dihydroquinazolin-2-yl)thio)-N-(2-methyl-4-nitrophenyl) acetamide]	67.4 ± 1.45	75.7 ± 1.85	40.98 ± 0.12	39.9 ± 0.57	80.8 ± 1.13						> 350
COc1cccc2c(=O)n(-c3ccc(S(N)(=O)=O)cc3)c(SCC(=O)Nc3c(C)cccc3[N+](=O)[O-])nc12 [Compound 17, 2-((8-Methoxy-4-oxo-3-(4-sulphamoylphenyl)-3,4-dihydroquinazolin-2-yl)thio)-N-(2-methyl-6-nitrophenyl) acetamide]						no activity	no activity	no activity	no activity	no activity	> 350
